Reference: US20240124456A1, “AZA-ERGOLINE DERIVATIVE AND PREPARATION METHOD THEREFOR AND APPLICATION THEREOF” (SHANGHAITECH UNIVERSITY, priority 2021, published 2024)

Legend:
Type in all cases: in vivo
C57B6 male mice [1] = experiment: Forced swimming experiment after 5 h restraint (depression-like behavior); conditions: restraint for five hours
Experimental: The experimental animals were C57B6 male mice, n=8 in each group. Firstly, the C57B6 mice were induced to develop depression-related behavioral representations by restraining the mice for 5 hours, and then the effects of the compounds on their “depression-like” behaviors were determined by tail suspension and forced swimming experiments. The specific experimental procedure was as follows. First, the mice were restrained using a mouse fixator for tail vein injection. During the restraint process, all behavioral abilities of the mice were restricted under the condition of ensuring minimal pain to the mice. The mice were administered intraperitoneally once before and after restraint, respectively. After the restraint, the mice returned to the cage to recover for 30 minutes. After the 30 minutes, the mice in different groups were subjected to tail suspension or forced swimming to detect their “depression-like” behavior, respectively.
Forced swimming experiment: the mouse was placed in a 5 L glass beaker filled with water, the water surface height was 15 cm, and the mouse needed to swim continuously in the beaker for 6 minutes. The first two minutes was the adaptation period and no data collection was performed. The time of the intermittent immobility behavior of the mouse was recorded in the next four minutes, and the immobility behavior of the mouse was defined as: the mouse float passively on the surface of the water without movement, with only small local movements required to maintain afloat. The duration of this immobility state was used to measure the degree of behavioral despair in the mouse. Data statistics were carried out using Student-t-test, p<0.05 was *, p<0.01 was **, p<0.001 was ***, p<0.0001 was ****. The results of statistical data of restrained and unrestrained mouse tail suspension experiment and forced swimming experiment are shown in Table 8.

C57B6 male mice [2] = experiment: Old and novel object recognition, MK801 recognition impairment model; conditions: for Distinguishing index (DI): MK801 (0.3 mg/kg) 14 injections in 7 days, 7 days recovery
Experimental: The experimental animals were C57B6 male mice, n=8 in each group. Firstly, mice were intraperitoneally injected with MK801 at 0.3 mg/kg twice a day for seven consecutive days to establish a recognition impairment model, and control mice were intraperitoneally injected with normal saline containing the same amount of DMSO. The mice then underwent a seven-day recovery in home cages. After the recovery period expired, the old and novel object distinguishing experiment was performed on the mice to determine the effect of the compounds on the recognition ability of the mice.
Novel and old object recognition experiment: The experiment was carried out in a low-light environment. Before the experiment started, the mice were placed in the experimental field in advance and adapted to the environment for one hour in the low-light environment. After environmental adaptation, the mice were administered intraperitoneally. 30 minutes after the administration, the mice were put in an open field (diameter of the open field of 40 cm) in which two identical objects had been placed beforehand. The mice explored freely in the open field for 10 minutes, and then were removed from the open field and returned to the cage. After a one-hour interval, the mice returned to the open field, where an old object and a novel object were placed in advance in the same position in the open field. Again, the mice explored freely in the open field for 10 minutes. The distinguishing time of the mice for the old object and the novel object was recorded separately and the distinguishing index was calculated. The calculation method of the distinguishing index was (exploration time for novel object−exploration time for old object)/(exploration time for novel object+exploration time for old object). Object exploration by the mice was defined as sniffing, climbing, and direct contact with the object. Data statistics were carried out using Student-t-test, p<0.05 was *, p<0.01 was **, p<0.001 was ***, p<0.0001 was ****.

C57B6 male mice [3] = experiment: Morris water maze, MK801 recognition impairment model; conditions: for Platform exploration time / Times of crossing platform area: MK801 model; for Times of crossing platform area: probe trial
Experimental: The experimental animals were C57B6 male mice, n=8 in each group. Firstly, mice were intraperitoneally injected with 0.2 mg/kg of MK801 twice a day for ten consecutive days to establish a recognition impairment model, and control mice were intraperitoneally injected with normal saline containing the same amount of DMSO, and then the mice were subjected to the Morris water maze test.
Experimental setup: Experiments were conducted in a blue circular water reservoir with a diameter of 130 cm. The reservoir was filled with pure water about 30 cm deep. The reservoir was divided into 4 fan-shaped areas by a cross, and the escape platform (6 cm in diameter) was located in the center of one of the fan-shaped areas and was hidden 0.5 cm below the water surface. The position where the mice entered the water was fixed at the edges of the other three fan-shaped areas. The position where the mice entered the water was basically consistent with the straight-line distance of the platform.
Acquisition phase: 30 minutes before the start of the experiment, the mice were administered intraperitoneally. After the experiment started, the mouse was put into the water with its head facing the reservoir wall, and the placement position was randomly selected from one of the three starting positions in the east, west, and south, and the underwater hidden platform was located in the north quadrant. The time taken by the mouse to find the underwater platform was recorded. […] Then the above steps were repeated 2 times at another starting position. Each animal was trained three times a day for 5 consecutive days.
Probe trial: on the second day after the last acquisition phase, the platform was removed and a 60-second probe trial began. The animal was placed in the water from the opposite side of the original platform quadrant. The number of times the animal crossed the original platform location was recorded as a detection index of spatial memory. Data statistics were carried out using Student-t-test, p<0.05 was *, p<0.01 was **, p<0.001 was ***, p<0.0001 was ****.

Question: Which results are given for `CN(C)C(=O)N[C@H]1CC[C@H](CCN2CCN3c4cccc5[nH]cc(c45)C[C@H]3C2)CC1` [(−)-I-10]?
Answer: Immobility time, forced swimming experiment (C57B6 male mice [1]; 0.00625 mg/kg intraperitoneal): 76.09 s; Immobility time, forced swimming experiment (C57B6 male mice [1]; 0.025 mg/kg intraperitoneal): 56.59 s; Immobility time, forced swimming experiment (C57B6 male mice [1]; 0.1 mg/kg intraperitoneal): 42.76 s; Immobility time, forced swimming experiment (C57B6 male mice [1]; 0.4 mg/kg intraperitoneal): 22.40 s; improvement of MK801-induced recognition impairment (in words) (C57B6 male mice [2]; 0.1 mg/kg and 0.025 mg/kg): significantly improve; Distinguishing index (DI) (C57B6 male mice [2]; 0.00625 mg/kg): 0.05971 ± 0.03658; Distinguishing index (DI) (C57B6 male mice [2]; 0.025 mg/kg): 0.3320 ± 0.06367; Distinguishing index (DI) (C57B6 male mice [2]; 0.1 mg/kg): 0.2789 ± 0.04036; improvement of MK801-induced spatial recognition impairment (in words) (C57B6 male mice [3]; 0.1 mg/kg): significantly improve; improvement of MK801-induced memory impairment (in words) (C57B6 male mice [3]; 0.1 mg/kg and 0.025 mg/kg): significantly improve; Platform exploration time (C57B6 male mice [3]; fifth day, 0.00625 mg/kg): 97.94 s; Platform exploration time (C57B6 male mice [3]; fifth day, 0.025 mg/kg): 92.23 s; Platform exploration time (C57B6 male mice [3]; fifth day, 0.1 mg/kg): 62.86 s; Platform exploration time (C57B6 male mice [3]; first day, 0.00625 mg/kg): 173.0 s; Platform exploration time (C57B6 male mice [3]; first day, 0.025 mg/kg): 161.2 s; Platform exploration time (C57B6 male mice [3]; first day, 0.1 mg/kg): 146.2 s; Platform exploration time (C57B6 male mice [3]; fourth day, 0.00625 mg/kg): 87.77 s; Platform exploration time (C57B6 male mice [3]; fourth day, 0.025 mg/kg): 96.66 s; Platform exploration time (C57B6 male mice [3]; fourth day, 0.1 mg/kg): 68.62 s; Times of crossing platform area (C57B6 male mice [3]; 0.00625 mg/kg): 2.600; Times of crossing platform area (C57B6 male mice [3]; 0.025 mg/kg): 4.500; Times of crossing platform area (C57B6 male mice [3]; 0.1 mg/kg): 5.800; Platform exploration time (C57B6 male mice [3]; second day, 0.00625 mg/kg): 145.3 s; Platform exploration time (C57B6 male mice [3]; second day, 0.025 mg/kg): 154.0 s; Platform exploration time (C57B6 male mice [3]; second day, 0.1 mg/kg): 128.5 s; Platform exploration time (C57B6 male mice [3]; third day, 0.00625 mg/kg): 108.1 s; Platform exploration time (C57B6 male mice [3]; third day, 0.025 mg/kg): 96.66 s; Platform exploration time (C57B6 male mice [3]; third day, 0.1 mg/kg): 88.38 s
